From ChEMBL document CHEMBL5665443, “Enzyme Inhibitor Single Concentration assay results for EUbOPEN Chemogenomics Library” (2024)

How the values were obtained:
Settings in all cases: Hit No
[1] = target: Methyl-CpG-binding domain protein 4 (Homo sapiens) (UniProt O95243);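 further: MBD4 activity read as fluorescence at 594 nm from cleavage and release of a quenched duplex DNA oligonucleotide, with APE1 coupled to incise the strand and raise turnover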
Description: Inhibition of MBD4 by quantifying inhibition of MBD4-mediated cleavage and dissociation of quenched duplex DNA oligonucleotides, measured as fluorescence at 594 nm. To generate a functional strand incision and increase turn-over this assay is coupled to APE1.

[2] = target: N-glycosylase/DNA lyase (Homo sapiens) (UniProt O15527);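 further: OGG1 cleavage of a quenched duplex DNA oligonucleotide, coupled to APE1 for strand incision, read as fluorescence at 594 nm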
Sequence of N-glycosylase/DNA lyase (Homo sapiens) (O15527 whole entry): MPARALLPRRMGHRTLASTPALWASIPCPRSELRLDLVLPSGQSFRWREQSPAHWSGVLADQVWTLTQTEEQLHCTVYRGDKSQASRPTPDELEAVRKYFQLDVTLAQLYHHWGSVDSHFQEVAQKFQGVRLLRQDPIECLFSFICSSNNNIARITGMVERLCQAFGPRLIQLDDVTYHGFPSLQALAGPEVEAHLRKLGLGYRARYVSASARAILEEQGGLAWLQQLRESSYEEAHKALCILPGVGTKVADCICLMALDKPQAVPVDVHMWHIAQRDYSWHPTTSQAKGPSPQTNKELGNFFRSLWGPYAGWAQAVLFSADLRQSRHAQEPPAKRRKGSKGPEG
Description: Inhibition of OGG1 by quantifying inhibition of OGG1-mediated cleavage and dissociation of quenched duplex DNA oligonucleotides, measured as fluorescence at 594 nm. To generate a functional strand incision and increase turn-over this assay is coupled to APE1.

[3] = target: T1, Adenine DNA glycosylase (Homo sapiens) (UniProt Q9UIF7);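 further: human MUTYH activity read as 594 nm fluorescence from cleavage and release of a quenched DNA duplex, coupled with APE1 for strand incision, lower signal meaning inhibition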
T1 sequence (whole entry): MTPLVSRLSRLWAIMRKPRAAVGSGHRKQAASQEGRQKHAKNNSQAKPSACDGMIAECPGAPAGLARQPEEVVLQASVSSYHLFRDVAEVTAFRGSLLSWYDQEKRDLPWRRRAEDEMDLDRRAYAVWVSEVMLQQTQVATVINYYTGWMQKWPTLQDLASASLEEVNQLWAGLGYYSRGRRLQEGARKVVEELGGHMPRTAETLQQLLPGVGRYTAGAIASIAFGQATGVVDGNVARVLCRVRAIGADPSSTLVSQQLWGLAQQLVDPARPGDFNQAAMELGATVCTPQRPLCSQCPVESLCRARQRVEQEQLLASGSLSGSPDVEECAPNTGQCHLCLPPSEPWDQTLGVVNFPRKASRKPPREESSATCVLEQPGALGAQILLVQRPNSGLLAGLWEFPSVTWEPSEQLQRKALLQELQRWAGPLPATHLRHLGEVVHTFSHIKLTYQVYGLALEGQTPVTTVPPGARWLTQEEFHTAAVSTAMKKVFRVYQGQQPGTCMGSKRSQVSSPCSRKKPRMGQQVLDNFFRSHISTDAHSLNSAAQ
Description: Inhibition of MUTYH by quantifying inhibition of MUTYH-mediated cleavage and dissociation of quenched duplex DNA oligonucleotides, measured as fluorescence at 594 nm. To generate a functional strand incision and increase turn-over this assay is coupled to APE1.

[4] = target: Uracil-DNA glycosylase (Homo sapiens) (UniProt P13051);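 further: UNG excision on a quenched double-stranded DNA oligo probe, with APE1 added for strand incision and turnover, read as fluorescence at 594 nm as strands separate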
Sequence of Uracil-DNA glycosylase (Homo sapiens) (P13051 whole entry): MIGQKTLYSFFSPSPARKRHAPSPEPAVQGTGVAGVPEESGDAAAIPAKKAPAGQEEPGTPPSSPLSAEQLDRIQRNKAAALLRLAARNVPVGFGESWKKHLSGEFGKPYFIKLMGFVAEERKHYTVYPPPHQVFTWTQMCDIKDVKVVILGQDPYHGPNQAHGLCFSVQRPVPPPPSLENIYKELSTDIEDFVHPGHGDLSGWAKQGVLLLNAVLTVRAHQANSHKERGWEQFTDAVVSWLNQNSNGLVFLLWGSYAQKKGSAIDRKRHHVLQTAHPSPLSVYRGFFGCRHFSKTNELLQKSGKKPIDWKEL
Description: Inhibition of UNG by quantifying inhibition of UNG-mediated cleavage and dissociation of quenched duplex DNA oligonucleotides, measured as fluorescence at 594 nm. To generate a functional strand incision and increase turn-over this assay is coupled to APE1.

[5] = target: Endonuclease 8-like 1 (Homo sapiens) (UniProt Q96FI4);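 further: fluorescence at 594 nm from quenched duplex DNA oligonucleotides released by NEIL1 cleavage and strand separation, reported as reduction of this enzyme activity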
Sequence of Endonuclease 8-like 1 (Homo sapiens) (Q96FI4 whole entry): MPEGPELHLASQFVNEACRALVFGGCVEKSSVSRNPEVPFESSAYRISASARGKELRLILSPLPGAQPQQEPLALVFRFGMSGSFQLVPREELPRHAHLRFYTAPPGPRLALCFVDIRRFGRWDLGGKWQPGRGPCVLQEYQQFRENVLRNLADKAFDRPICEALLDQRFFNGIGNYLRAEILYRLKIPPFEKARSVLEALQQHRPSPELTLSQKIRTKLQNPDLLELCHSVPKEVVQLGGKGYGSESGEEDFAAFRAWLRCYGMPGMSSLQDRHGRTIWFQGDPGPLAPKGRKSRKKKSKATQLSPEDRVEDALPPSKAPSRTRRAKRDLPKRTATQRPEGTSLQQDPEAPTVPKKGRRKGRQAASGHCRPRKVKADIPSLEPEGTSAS
Description: Inhibition of NEIL1 by quantifying inhibition of NEIL1-mediated cleavage and dissociation of quenched duplex DNA oligonucleotides, measured as fluorescence at 594 nm.

[6] = target: G/T mismatch-specific thymine DNA glycosylase (Homo sapiens) (UniProt Q13569);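 further: human TDG cleavage of quenched duplex DNA oligonucleotides coupled to APE1, strand release read as fluorescence at 594 nm, inhibition of TDG activity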
Sequence of G/T mismatch-specific thymine DNA glycosylase (Homo sapiens) (Q13569 whole entry): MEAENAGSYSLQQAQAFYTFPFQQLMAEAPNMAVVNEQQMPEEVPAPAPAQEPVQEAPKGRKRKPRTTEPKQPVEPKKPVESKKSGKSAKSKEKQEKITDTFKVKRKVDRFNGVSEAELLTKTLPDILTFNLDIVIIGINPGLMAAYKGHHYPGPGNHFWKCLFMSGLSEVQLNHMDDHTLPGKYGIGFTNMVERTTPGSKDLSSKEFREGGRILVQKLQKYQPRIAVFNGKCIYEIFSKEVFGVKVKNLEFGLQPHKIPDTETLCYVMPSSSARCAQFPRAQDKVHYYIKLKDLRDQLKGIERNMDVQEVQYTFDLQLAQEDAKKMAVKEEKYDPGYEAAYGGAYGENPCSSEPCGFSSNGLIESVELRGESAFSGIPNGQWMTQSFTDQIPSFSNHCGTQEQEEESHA
Description: Inhibition of TDG by quantifying inhibition of TDG-mediated cleavage and dissociation of quenched duplex DNA oligonucleotides, measured as fluorescence at 594 nm. To generate a functional strand incision and increase turn-over this assay is coupled to APE1.

[7] = target: T2, Endonuclease III-like protein 1 (Homo sapiens) (UniProt P78549);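 further: enzyme assay tracking NTHL1 cutting and release of a quenched double-stranded DNA oligo substrate, read as fluorescence at 594 nm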
T2 sequence (whole entry): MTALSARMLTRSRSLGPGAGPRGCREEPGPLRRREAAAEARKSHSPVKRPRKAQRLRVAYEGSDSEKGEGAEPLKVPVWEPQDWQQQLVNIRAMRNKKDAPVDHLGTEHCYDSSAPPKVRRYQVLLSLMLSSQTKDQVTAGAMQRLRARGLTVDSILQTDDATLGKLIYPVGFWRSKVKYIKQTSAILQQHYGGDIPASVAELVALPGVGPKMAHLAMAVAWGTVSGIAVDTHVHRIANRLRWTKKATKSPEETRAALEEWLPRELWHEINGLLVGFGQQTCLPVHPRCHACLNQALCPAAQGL
Description: Inhibition of NTHL1 by quantifying inhibition of NTHL1-mediated cleavage and dissociation of quenched duplex DNA oligonucleotides, measured as fluorescence at 594 nm.

[8] = target: T3, Single-strand selective monofunctional uracil DNA glycosylase (Homo sapiens) (UniProt Q53HV7);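 further: enzymatic SMUG1 assay coupled with APE1, reading fluorescence at 594 nm released when a quenched double-stranded DNA oligonucleotide substrate is cleaved and separated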
T3 sequence (whole entry): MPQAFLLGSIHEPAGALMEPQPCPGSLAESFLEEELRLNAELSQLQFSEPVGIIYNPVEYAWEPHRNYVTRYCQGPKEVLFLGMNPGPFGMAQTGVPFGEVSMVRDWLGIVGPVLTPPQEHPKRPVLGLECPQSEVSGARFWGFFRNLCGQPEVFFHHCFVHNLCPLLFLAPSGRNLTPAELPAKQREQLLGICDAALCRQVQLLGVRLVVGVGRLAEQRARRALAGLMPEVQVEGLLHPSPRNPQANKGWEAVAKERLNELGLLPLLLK
Description: Inhibition of SMUG1 by quantifying inhibition of SMUG1-mediated cleavage and dissociation of quenched duplex DNA oligonucleotides, measured as fluorescence at 594 nm. To generate a functional strand incision and increase turn-over this assay is coupled to APE1.

[9] = target: T4, Endonuclease 8-like 2 (Homo sapiens) (UniProt Q969S2);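 further: fluorescence at 594 nm reports NEIL2 cutting and release of a quenched double-stranded DNA oligo substrate, reduced signal read as inhibition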
T4 sequence (whole entry): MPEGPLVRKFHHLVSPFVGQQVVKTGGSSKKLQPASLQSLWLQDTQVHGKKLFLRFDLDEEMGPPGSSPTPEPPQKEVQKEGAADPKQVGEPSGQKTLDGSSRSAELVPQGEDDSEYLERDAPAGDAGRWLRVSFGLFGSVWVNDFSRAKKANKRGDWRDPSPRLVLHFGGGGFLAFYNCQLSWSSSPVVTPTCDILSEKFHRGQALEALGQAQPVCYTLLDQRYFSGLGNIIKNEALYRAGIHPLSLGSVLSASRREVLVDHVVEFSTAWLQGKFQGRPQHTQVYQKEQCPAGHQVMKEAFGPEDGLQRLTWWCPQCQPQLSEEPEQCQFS
Description: Inhibition of NEIL2 by quantifying inhibition of NEIL2-mediated cleavage and dissociation of quenched duplex DNA oligonucleotides, measured as fluorescence at 594 nm.

Sequence of Methyl-CpG-binding domain protein 4 (Homo sapiens) (O95243 whole entry, the tested form may be a part): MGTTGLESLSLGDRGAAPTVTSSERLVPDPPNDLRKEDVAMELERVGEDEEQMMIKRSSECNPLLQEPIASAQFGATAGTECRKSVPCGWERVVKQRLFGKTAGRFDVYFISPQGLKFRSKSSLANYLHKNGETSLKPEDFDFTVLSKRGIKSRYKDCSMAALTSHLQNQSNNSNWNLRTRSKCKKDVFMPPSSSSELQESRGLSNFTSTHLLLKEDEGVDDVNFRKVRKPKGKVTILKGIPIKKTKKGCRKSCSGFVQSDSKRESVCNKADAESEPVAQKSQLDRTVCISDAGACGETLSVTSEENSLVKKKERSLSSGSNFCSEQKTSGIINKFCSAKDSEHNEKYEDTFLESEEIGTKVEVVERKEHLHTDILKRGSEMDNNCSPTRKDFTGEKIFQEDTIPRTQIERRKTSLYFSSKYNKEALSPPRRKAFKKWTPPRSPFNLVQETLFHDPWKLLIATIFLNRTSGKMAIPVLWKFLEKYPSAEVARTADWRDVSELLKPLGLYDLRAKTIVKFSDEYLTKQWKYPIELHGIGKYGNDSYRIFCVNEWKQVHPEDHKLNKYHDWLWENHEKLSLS

Row | inhibition ([1]; Compound Concentration 10.0 uM) [%] | inhibition ([2]; Compound Concentration 10.0 uM) [%] | inhibition ([3]; Compound Concentration 10.0 uM) [%] | inhibition ([4]; Compound Concentration 10.0 uM) [%] | inhibition ([5]; Compound Concentration 10.0 uM) [%] | inhibition ([6]; Compound Concentration 10.0 uM) [%] | inhibition ([7]; Compound Concentration 10.0 uM) [%] | inhibition ([8]; Compound Concentration 10.0 uM) [%] | inhibition ([9]; Compound Concentration 10.0 uM) [%] | inhibition ([1]; Compound Concentration 1.0 uM) [%] | inhibition ([2]; Compound Concentration 1.0 uM) [%] | inhibition ([4]; Compound Concentration 1.0 uM) [%] | inhibition ([5]; Compound Concentration 1.0 uM) [%] | inhibition ([6]; Compound Concentration 1.0 uM) [%] | inhibition ([8]; Compound Concentration 1.0 uM) [%] | inhibition ([9]; Compound Concentration 1.0 uM) [%] | inhibition ([3]; Compound Concentration 1.0 uM) [%] | inhibition ([7]; Compound Concentration 1.0 uM) [%] | Structure (SMILES)
1 | 53.6 | -6.61 | -6.77 | 1.18 | 3.04 | 40.4 | 7.92 | 6.53 | 5.89 |  |  |  |  |  |  |  |  |  | N#CN1CC[C@H](C(=O)Nc2nc3c(s2)CN(C(=O)CN=[N+]=[N-])CC3)C1
2 | -6.01 | 2.35 | 8.44 | 4.06 | 5.29 | 48.3 | -4.1 | 15.1 | 8.58 |  |  |  |  |  |  |  |  |  | O=C(NCCCN1CCOC1=O)c1cnc(NCc2cc(Br)ccc2Br)nc1NC1CCCC1
3 | 16.6 | 4.66 | 9.35 | 3.52 | 2.28 | 100 | -7.86 | 23.4 | -7.12 | 13.6 | -7.84 | -2.6 | 3.44 | 43.6 | 10.4 | -4.88 |  |  | CNC(=O)c1ccc(Nc2ncc(C(F)(F)F)c(NCc3nccnc3N(C)S(C)(=O)=O)n2)cc1
4 |  |  |  |  |  |  |  |  |  | 30 | -1.89 | 0.741 | -4.09 | 40.2 | 16.6 | -1.92 | 5.04 | -6.19 | CN(C)C(=O)Cn1cc(-c2ccc(-c3cncc4ccccc34)cc2)cn1
5 | 67.4 | 31.5 | 8.53 | 6.33 | -1.96 | 100 | -5.23 | 23.6 | -1.51 |  |  |  |  |  |  |  |  |  | Cc1cc(OC2CCS(=O)(=O)CC2)cc(C)c1-c1cccc(COc2ccc(C(=O)O)c(F)c2)c1
6 | 11.1 | -2.45 | 7.76 | -9.18 | 5.2 | 8.79 | 22.9 | -6.46 | 13.9 |  |  |  |  |  |  |  |  |  | O=C(O)c1ccc(C(=O)N[C@@H](c2ccc(OC(F)(F)F)c(F)c2)c2ncccc2F)nc1
7 | 64.2 | 78.7 | 10 | 1.96 | -2.26 | 61.7 | -4.57 | 18.5 | -1.76 |  |  |  |  |  |  |  |  |  | Cc1cc(OCCC(C)(C)O)cc(C)c1-c1ccc(F)c2c1CC[C@H]2Oc1ccc2c(c1)OC[C@H]2CC(=O)O
8 | 17.6 | 2.08 | -5.82 | 1.81 | 1.85 | 38.5 | -5.49 | 13.6 | -5.69 |  |  |  |  |  |  |  |  |  | CN1CCN(C(=O)c2ccc3cc2OCCOCCNc2ccn4ncc-3c4n2)CC1
9 |  |  |  |  |  |  |  |  |  | 48.6 | 1.67 | 2.27 | 0.138 | 25.9 | 16.9 | -7.84 | -3.03 | 1.48 | OCCn1cc(-c2ccc3c(c2)CCC3=NO)c(-c2ccncc2)n1
10 | 57.7 | 13.5 | -5.57 | 9.26 | -3.17 | 98.5 | 1.34 | 13.7 | -1.51 |  |  |  |  |  |  |  |  |  | CCCCCNC(=O)N1CCC(CN(Cc2ccc(Cl)cc2)Cc2ccc([N+](=O)[O-])s2)C1 (stereo unspecified)
11 | -4.72 | 3.23 | 4.56 | 3.59 | -4.75 | 35.8 | 7.06 | 19.3 | 4 |  |  |  |  |  |  |  |  |  | COc1ccccc1-c1cc(Nc2cccc(CS(N)(=O)=O)c2)ncn1
